Assay results as given in patent US12357649B2, “Glycoalkaloid combinations and various uses thereof” (priority 2016, dated 2025).

Experiment: Stability of cream formulation: HPLC assay of solamargine
Assay type: physicochemical
Conditions: cream with 5% urea, 10% salicylic, 25°C, 60% RH
Procedure: Visual appearance was conducted by comparison to standard commercially available solamargine cream composition. High-Performance Liquid Chromatography (HPLC) to determine quantity of solamargine in the cream, substantially as described in WO 2000061153 A1.

## C[C@@H]1CC[C@@]2(NC1)O[C@H]1C[C@H]3[C@@H]4CC=C5C[C@@H](O[C@@H]6O[C@H](CO)[C@@H](O[C@@H]7O[C@@H](C)[C@H](O)[C@@H](O)[C@H]7O)[C@H](O)[C@H]6O[C@@H]6O[C@@H](C)[C@H](O)[C@@H](O)[C@H]6O)CC[C@]5(C)[C@H]4CC[C@]3(C)[C@H]1[C@@H]2C [Solamargine, (22R,25R)-spiro-5-en-3β-yl-α-L-rhamnopyranosyl-(1→2glu)-O-α-L-rhamnopyranosyl-(1→4glu)-β-D-gluco-pyranose]
10% lactic acid, 1% Xanthan gum, 0 months
  HPLC Assay Solamargine: 20.6 μg/g cream
10% lactic acid, 1% Xanthan gum, 3 months
  HPLC Assay Solamargine: 23.1 μg/g cream
10% lactic acid, 1% Xanthan gum, 6 months
  HPLC Assay Solamargine: 19.8 μg/g cream
10% lactic acid, 1% Xanthan gum, 9 months
  HPLC Assay Solamargine: 21.2 μg/g cream
10% lactic acid, 1% Xanthan gum, 12 months
  HPLC Assay Solamargine: 23.1 μg/g cream
10% lactic acid, 1% Xanthan gum, 18 months
  HPLC Assay Solamargine: 20.4 μg/g cream
10% lactic acid, 1% Xanthan gum, 24 months
  HPLC Assay Solamargine: 22.1 μg/g cream
10% lactic acid, 1% Xanthan gum, 36 months
  HPLC Assay Solamargine: 19.8 μg/g cream
10% lactic acid, 1% Xanthan gum, 42 months
  HPLC Assay Solamargine: 19.6 μg/g cream
10% lactic acid, 1% Xanthan gum, 48 months
  HPLC Assay Solamargine: 21.2 μg/g cream
No lactic acid, no emulsion-stabilising agent, 0 months
  HPLC Assay Solamargine: 18.3 μg/g cream
No lactic acid, no emulsion-stabilising agent, 3 months
  HPLC Assay Solamargine: 19 μg/g cream
No lactic acid, no emulsion-stabilising agent, 6 months
  HPLC Assay Solamargine: 21.1 μg/g cream
No lactic acid, no emulsion-stabilising agent, 9 months
  HPLC Assay Solamargine: 9.2 μg/g cream
No lactic acid, no emulsion-stabilising agent, 12 months
  HPLC Assay Solamargine: 7.3 μg/g cream
No lactic acid, no emulsion-stabilising agent, 18 months
  HPLC Assay Solamargine: 6.8 μg/g cream
No lactic acid, no emulsion-stabilising agent, 24 months
  HPLC Assay Solamargine: 5.1 μg/g cream
No lactic acid, no emulsion-stabilising agent, 36 months
  HPLC Assay Solamargine: 5.3 μg/g cream
No lactic acid, no emulsion-stabilising agent, 42 months
  HPLC Assay Solamargine: 5.1 μg/g cream
No lactic acid, no emulsion-stabilising agent, 48 months
  HPLC Assay Solamargine: 5.2 μg/g cream
